Assay [1] has as its target T1, hMMP 13 (Homo sapiens, UniProt P45452).
T1 construct: made in house
Nature of the assay: In vitro metalloprotease inhibition, fluorogenic peptide substrate (recombinant human MMP-13, APMA activated). In kind it is biochemical. The conditions noted are these: recombinant human MMP-13, room temperature, pH 7.5, 4 μM substrate. Here is the method:
(§1) Briefly, 4-aminophenylmercuric acetate (APMA) or trypsin activated MMPs were incubated with various concentrations of the inhibitor compound at room temperature for 5 minutes (0.02% 2-mercaptoethanol added to buffer for thiol compounds with 5 minutes or overnight incubation).
(§2) More specifically, recombinant human MMP-13 and MMP-1 enzymes were prepared in laboratories of the assignee. MMP-13 was expressed in baculovirus as a proenzyme, and purified first over a heparin agarose column and then over a chelating zinc chloride column. The proenzyme was activated by APMA for use in the assay. MMP-1 expressed in transfected HT-1080 cells was provided by Dr. Howard Welgus of Washington University, St. Louis, Mo. The enzyme was also activated using APMA and was then purified over a hydroxamic acid column.
(§3) The enzyme substrate is a methoxycoumarin-containing polypeptide having the following sequence:
(§4) MCA-ProLeuGlyLeuDpaAlaArgNH^2, wherein MCA is methoxycoumarin and Dpa is 3-(2,4--dinitrophenyl)-L-2,3-diaminopropionyl alanine.
(§5) Assays were carried out at room temperature, and dimethyl sulfoxide (DMSO) at a final concentration of 1 percent was used to dissolve inhibitor compound.
(§6) The assayed inhibitor compound in DMSO/buffer solution was compared to an equal amount of DMSO/buffer with no inhibitor as control using Microfluor™ White Plates (Dynatech). The inhibitor or control solution was maintained in the plate for 10 minutes and the substrate was added to provide a final concentration of 4 μM.
(§7) Inhibition was measured as a reduction in fluorescent intensity as a function of inhibitor concentration, using a Perkin Elmer L550 plate reader. The IC50 values were calculated from those values.

Assay [2] addresses T2, hMMP 1 (Homo sapiens, UniProt P03956).
T2 construct: host or cells: transfected HT-1080 cells
T2 sequence (P03956 100-469): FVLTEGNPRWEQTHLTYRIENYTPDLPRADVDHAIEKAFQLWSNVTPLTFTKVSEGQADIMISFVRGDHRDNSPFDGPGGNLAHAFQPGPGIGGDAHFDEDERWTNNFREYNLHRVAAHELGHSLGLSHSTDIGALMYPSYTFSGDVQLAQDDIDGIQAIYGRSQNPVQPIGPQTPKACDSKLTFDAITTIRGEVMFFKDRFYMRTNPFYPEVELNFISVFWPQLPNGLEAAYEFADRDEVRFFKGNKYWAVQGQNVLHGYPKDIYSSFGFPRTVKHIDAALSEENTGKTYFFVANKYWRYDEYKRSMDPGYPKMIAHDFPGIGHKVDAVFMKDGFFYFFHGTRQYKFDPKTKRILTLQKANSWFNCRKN
Nature of the assay: In vitro metalloprotease inhibition, fluorogenic peptide substrate (recombinant human MMP-1, APMA activated). Type of assay: biochemical. The conditions noted are these: human MMP-1, room temperature, pH 7.5, 4 μM substrate. The protocol:
as §1, §2, §3, §4, §5, §6, §7

The subject of assay [3] is neovascularization of the corneal stroma. Nature of the assay: In vivo angiogenesis assay (corneal micropocket assay, bFGF pellet). Further details: species or system mouse (C57Bl/6 female). The conditions noted are these: 50 mg/kg bid, po, day five, mouse cornea. The protocol: The study of angiogenesis depends on a reliable and reproducible model for the stimulation and inhibition of a neovascular response. The corneal micropocket assay provides such a model of angiogenesis in the cornea of a mouse. See, A Model of Angiogenesis in the Mouse Cornea; Kenyon, BM, et al., Investigative Ophthalmology & Visual Science, July 1996, Vol. 37, No. 8.
In this assay, uniformly sized Hydron™ pellets containing bFGF and sucralfate were prepared and surgically implanted into the stroma mouse cornea adjacent to the temporal limbus. […]
Mice were dosed on a daily basis for the duration of the assay. […] At day five, the degree of angiogenic inhibition was scored by viewing the neovascular progression with a slit lamp microscope.
The mice were anesthetized and the studied eye was once again proptosed. The maximum vessel length of neovascularization, extending from the limbal vascular plexus toward the pellet was measured. In addition, the contiguous circumferential zone of neovascularization was measured as clock hours, where 30 degrees of arc equals one clock hour. The area of angiogenesis was calculated as follows. […]
The studied mice were thereafter compared to control mice and the difference in the area of neovascularization was recorded.

The term IC50 denotes the concentration needed to halve the response being measured. `O=C(NCCN1CCOCC1)C(S)CCS(=O)(=O)c1ccc(Oc2ccccc2)cc1` (stereo not drawn) [Example 39]: the IC50 amounted to 0.2 nM in assay [1] and 370 nM in assay [2]. The “inhibition (difference in area of neovascularization vs control mice)” value in assay [3] amounted to 51%.

The values above are taken from patent US6013649A, “Thiol sulfone metalloprotease inhibitors” (Monsanto Company, priority 1997, dated 2000).
